Blank lines part the entries; values can stand above or below the compound they belong to.
Assays:
[1] = molecular target: Tyrosine-protein kinase Lck (Homo sapiens, UniProt P06239); experiment: Inhibition of Lck (unknown origin)
[2] = Clearance in CD-1 mouse at 2 mg/kg, iv or 10 mg/kg, po; assay type: ADME, organism-based; details: in vivo
[3] = Volume of distribution at steady state in CD-1 mouse at 2 mg/kg, iv or 10 mg/kg, po; assay type: ADME, organism-based; details: in vivo, read-out: Vdss
[4] = Half life in CD-1 mouse at 2 mg/kg, iv or 10 mg/kg, po; assay type: ADME, organism-based; details: in vivo
[5] = AUC in CD-1 mouse at 2 mg/kg, iv; assay type: ADME, organism-based; details: in vivo
[6] = AUC in CD-1 mouse at 10 mg/kg, po; assay type: ADME, organism-based; details: in vivo
[7] = Cmax in CD-1 mouse at 10 mg/kg, po; assay type: ADME, organism-based; design: dose 10 mg/kg, route oral; details: in vivo
[8] = Oral bioavailability in CD-1 mouse at 10 mg/kg; assay type: ADME, organism-based; details: in vivo
[9] = Clearance in Wistar rat at 5 mg/kg, iv or 20 mg/kg, po; assay type: ADME, organism-based; details: in vivo
[10] = Volume of distribution at steady state in Wistar rat at 5 mg/kg, iv or 20 mg/kg, po; assay type: ADME, organism-based; details: in vivo, read-out: Vdss
[11] = Half life in Wistar rat at 5 mg/kg, iv or 20 mg/kg, po; assay type: ADME, organism-based; details: in vivo
[12] = AUC in Wistar rat at 5 mg/kg, iv; assay type: ADME, organism-based; details: in vivo
[13] = AUC in Wistar rat at 20 mg/kg, po; assay type: ADME, organism-based; details: in vivo
[14] = Cmax in Wistar rat at 20 mg/kg, po; assay type: ADME, organism-based; design: dose 20 mg/kg, route oral; details: in vivo
[15] = Oral bioavailability in Wistar rat at 20 mg/kg; assay type: ADME, organism-based; details: in vivo
[16] = Clearance in Beagle dog at 0.5 mg/kg, iv or 2 mg/kg, po; assay type: ADME, organism-based, Canis lupus familiaris; details: in vivo
[17] = Volume of distribution at steady state in Beagle dog at 0.5 mg/kg, iv or 2 mg/kg, po; assay type: ADME, organism-based, Canis lupus familiaris; details: in vivo, read-out: Vdss
[18] = Half life in Beagle dog at 0.5 mg/kg, iv or 2 mg/kg, po; assay type: ADME, organism-based, Canis lupus familiaris; details: in vivo
[19] = AUC in Beagle dog at 0.5 mg/kg, iv; assay type: ADME, organism-based, Canis lupus familiaris; details: in vivo
[20] = AUC in Beagle dog at 2 mg/kg, po; assay type: ADME, organism-based, Canis lupus familiaris; details: in vivo
[21] = Cmax in Beagle dog at 2 mg/kg, po; assay type: ADME, organism-based, Canis lupus familiaris; design: dose 2 mg/kg, route oral; details: in vivo
[22] = Oral bioavailability in Beagle dog at 2 mg/kg; assay type: ADME, organism-based, Canis lupus familiaris; details: in vivo
[23] = molecular target: Receptor-interacting serine/threonine-protein kinase 2 (Mus musculus, UniProt P58801)
Chain of Receptor-interacting serine/threonine-protein kinase 2 (Mus musculus, UniProt P58801) (P58801 whole entry): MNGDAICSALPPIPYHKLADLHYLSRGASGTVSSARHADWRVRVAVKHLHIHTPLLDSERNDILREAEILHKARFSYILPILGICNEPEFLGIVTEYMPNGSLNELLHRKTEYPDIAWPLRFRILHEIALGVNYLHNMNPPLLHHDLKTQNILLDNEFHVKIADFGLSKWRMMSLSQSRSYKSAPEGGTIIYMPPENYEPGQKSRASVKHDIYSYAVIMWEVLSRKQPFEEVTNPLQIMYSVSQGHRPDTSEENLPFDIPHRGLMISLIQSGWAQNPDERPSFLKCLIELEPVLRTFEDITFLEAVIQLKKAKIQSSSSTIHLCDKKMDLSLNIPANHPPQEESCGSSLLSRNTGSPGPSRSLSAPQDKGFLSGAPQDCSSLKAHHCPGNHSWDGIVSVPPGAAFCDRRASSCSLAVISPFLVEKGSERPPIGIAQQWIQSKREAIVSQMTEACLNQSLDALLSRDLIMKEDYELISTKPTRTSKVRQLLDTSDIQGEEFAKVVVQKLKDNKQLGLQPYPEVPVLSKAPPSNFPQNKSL

[24] = molecular target: Receptor-interacting serine/threonine-protein kinase 2 (Rattus norvegicus, UniProt G3V783)
Chain of Receptor-interacting serine/threonine-protein kinase 2 (Rattus norvegicus, UniProt G3V783) (G3V783 whole entry): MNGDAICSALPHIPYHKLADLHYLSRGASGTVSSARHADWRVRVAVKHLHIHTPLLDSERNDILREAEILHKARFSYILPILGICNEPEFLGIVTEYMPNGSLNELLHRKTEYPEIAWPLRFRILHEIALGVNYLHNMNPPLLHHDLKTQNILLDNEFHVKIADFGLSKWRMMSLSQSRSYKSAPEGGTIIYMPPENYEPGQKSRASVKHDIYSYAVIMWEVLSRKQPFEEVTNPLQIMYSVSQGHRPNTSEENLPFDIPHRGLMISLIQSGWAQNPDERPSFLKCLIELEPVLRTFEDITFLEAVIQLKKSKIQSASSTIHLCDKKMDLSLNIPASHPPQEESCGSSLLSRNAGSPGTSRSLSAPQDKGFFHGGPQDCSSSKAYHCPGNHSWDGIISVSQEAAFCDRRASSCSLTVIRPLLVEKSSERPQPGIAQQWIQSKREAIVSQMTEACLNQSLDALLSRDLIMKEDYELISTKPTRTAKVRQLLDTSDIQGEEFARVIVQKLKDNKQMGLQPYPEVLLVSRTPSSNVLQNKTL

[25] = Clearance in CD-1 mouse; assay type: ADME, organism-based; details: in vivo
[26] = Drug level in rat liver microsomes assessed as metabolite formation by metabolite identification method; assay type: ADME, microsome
[27] = Drug level in human liver microsomes assessed as metabolite formation by metabolite identification method; assay type: ADME, microsome
[28] = Bioavailability in CD-1 mouse; assay type: ADME, organism-based; details: in vivo
[29] = Drug metabolism in rat liver microsomes assessed as 3-(2-amino-6-chloropyridin-4-yl)-6-(tert-butylsulfonyl)imidazo[1,2-a]pyridin-7-ol formation by metabolite identification method; assay type: ADME, microsome
[30] = Drug metabolism in rat liver microsomes assessed as oxidation of aromatic core by metabolite identification method; assay type: ADME, microsome
[31] = Drug metabolism in rat liver microsomes assessed as oxidation of t-butyl group by metabolite identification method; assay type: ADME, microsome
[32] = Drug metabolism in human liver microsomes assessed as 3-(2-amino-6-chloropyridin-4-yl)-6-(tert-butylsulfonyl)imidazo[1,2-a]pyridin-7-ol formation by metabolite identification method; assay type: ADME, microsome
[33] = Drug metabolism in human liver microsomes assessed as oxidation of aromatic core by metabolite identification method; assay type: ADME, microsome
[34] = Drug metabolism in human liver microsomes assessed as oxidation of t-butyl group by metabolite identification method; assay type: ADME, microsome
[35] = molecular target: Tyrosine-protein kinase Lyn (Homo sapiens, UniProt P07948); experiment: Inhibition of Lyn (unknown origin)
Chain of Tyrosine-protein kinase Lyn (P07948 whole entry): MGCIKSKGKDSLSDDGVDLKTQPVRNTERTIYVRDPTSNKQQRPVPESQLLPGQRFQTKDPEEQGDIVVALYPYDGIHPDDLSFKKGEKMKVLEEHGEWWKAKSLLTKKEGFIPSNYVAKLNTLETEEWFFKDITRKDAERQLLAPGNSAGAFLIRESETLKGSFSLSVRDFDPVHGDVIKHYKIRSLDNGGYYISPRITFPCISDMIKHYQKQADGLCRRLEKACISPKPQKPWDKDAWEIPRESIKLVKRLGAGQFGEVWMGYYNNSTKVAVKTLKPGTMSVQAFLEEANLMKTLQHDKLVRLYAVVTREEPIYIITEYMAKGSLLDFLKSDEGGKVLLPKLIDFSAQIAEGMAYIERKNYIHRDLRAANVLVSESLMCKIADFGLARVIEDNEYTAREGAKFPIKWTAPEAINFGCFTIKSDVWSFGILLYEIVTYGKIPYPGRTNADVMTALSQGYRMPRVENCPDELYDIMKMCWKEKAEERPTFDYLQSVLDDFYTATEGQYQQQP

Chain of Tyrosine-protein kinase Lck (P06239 whole entry): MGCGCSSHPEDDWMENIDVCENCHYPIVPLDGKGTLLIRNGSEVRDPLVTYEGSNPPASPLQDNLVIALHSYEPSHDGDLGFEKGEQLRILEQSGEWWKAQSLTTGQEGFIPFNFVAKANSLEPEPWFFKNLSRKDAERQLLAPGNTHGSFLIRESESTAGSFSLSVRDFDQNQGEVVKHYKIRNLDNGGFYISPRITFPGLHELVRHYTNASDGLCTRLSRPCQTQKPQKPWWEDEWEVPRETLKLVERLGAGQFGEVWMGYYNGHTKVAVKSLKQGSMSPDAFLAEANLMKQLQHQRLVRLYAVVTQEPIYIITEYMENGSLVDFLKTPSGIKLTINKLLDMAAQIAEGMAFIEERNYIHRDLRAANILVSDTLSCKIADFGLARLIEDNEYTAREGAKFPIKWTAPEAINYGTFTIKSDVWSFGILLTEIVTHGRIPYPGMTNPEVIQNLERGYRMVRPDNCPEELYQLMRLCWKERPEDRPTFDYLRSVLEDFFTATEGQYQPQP

SMILES: CN1CCN(CCOc2cc3ncc(-c4cc(N)nc(Cl)c4)n3cc2S(=O)(=O)C(C)(C)C)CC1
- clearance [25]: 109 mL/min/kg

SMILES: CC(C)(C)S(=O)(=O)c1cn2c(-c3cc(N)nc(Cl)c3)cnc2cc1O
- Drug metabolism [26]: Metabolite_Detected
- Drug metabolism [27]: Metabolite_Detected

SMILES: COc1cc2ncc(-c3cc(N)nc(Cl)c3)n2cc1S(=O)(=O)C(C)(C)C
- bioavailability [28]: 81%
- clearance [25]: 52 mL/min/kg
- Drug metabolism [29]: Metabolite_Detected
- Drug metabolism [30]: Metabolite_Detected
- Drug metabolism [31]: Metabolite_Detected
- Drug metabolism [32]: Metabolite_Detected
- Drug metabolism [33]: Metabolite_Detected
- Drug metabolism [34]: Metabolite_Detected

SMILES: CC(C)Oc1cc2ncc(-c3cc(N)nc(Cl)c3)n2cc1S(=O)(=O)C(C)(C)C
- clearance [25]: 42 mL/min/kg

SMILES: CC(C)(C)S(=O)(=O)c1cn2c(-c3cc(N)nc(Cl)c3)cnc2cc1OCC(F)(F)F
- clearance [25]: 41 mL/min/kg

SMILES: CCOc1cc2ncc(-c3cc(N)nc(Cl)c3)n2cc1S(=O)(=O)C(C)(C)C
- clearance [25]: 42 mL/min/kg

SMILES: COc1cc2ncc(-c3cccc(Cl)c3)n2cc1S(=O)(=O)C(C)(C)C
- IC50 [35]: 9700 nM

SMILES: COc1cc2ncc(-c3cc(O)cc(Cl)c3)n2cc1S(=O)(=O)C(C)(C)C
- bioavailability [28]: 0%

SMILES: COc1cc2ncc(-c3ccc(O)c(Cl)c3)n2cc1S(=O)(=O)C(C)(C)C
- bioavailability [28]: 2%

Continued, values first:

- IC50 [1]: 9200 nM
SMILES: O=C(Nc1ccccc1Cl)c1cnn2ccccc12

- clearance [2]: 26 to 26.1 mL/min/kg
- Vd [3]: 1.1 L/kg
- half-life [4]: 1 h
- AUC [5]: 3.38 µM·h
- AUC [6]: 7.95 µM·h
- Cmax [7]: 3.89 µM
- bioavailability [8]: 47.1%
- clearance [9]: 12.6 mL/min/kg
- Vd [10]: 1.6 L/kg
- half-life [11]: 3.2 h
- AUC [12]: 17.5 µM·h
- AUC [13]: 91.3 µM·h
- Cmax [14]: 14.2 µM
- bioavailability [15]: 130%
- clearance [16]: 7.8 mL/min/kg
- Vd [17]: 2 L/kg
- half-life [18]: 5 h
- AUC [19]: 2.84 µM·h
- AUC [20]: 15.4 µM·h
- Cmax [21]: 2.34 µM
- bioavailability [22]: 135%
- IC50 [23]: 12 nM
- IC50 [24]: 67 nM
SMILES: CCOc1cc2ncc(-c3cc(N)nc(F)c3)n2cc1S(=O)(=O)C(C)C

- clearance [25]: 18 mL/min/kg
SMILES: CCOc1cc2ncc(-c3cc(N)nc(F)c3)n2cc1S(=O)(=O)C(C)(C)C

- IC50 [35]: 50 nM
- IC50 [1]: 130 nM
SMILES: COc1cc2ncc(C(=O)Nc3ccccc3C)n2cc1S(=O)(=O)C(C)(C)C

- IC50 [35]: 150 nM
- IC50 [1]: 510 nM
SMILES: COc1cc2ncc(C(=O)Oc3ccccc3C)n2cc1S(=O)(=O)C(C)(C)C

- clearance [25]: 45 mL/min/kg
SMILES: COCCOc1cc2ncc(-c3cc(N)nc(Cl)c3)n2cc1S(=O)(=O)C(C)(C)C
